Experiments:
[1] = target: PI3kβ (Homo sapiens, UniProt P42338); test: Fluorescent (HTRF) determination of PI3 kinase enzyme activity, PI3Kβ; assay type: biochemical; conditions: 1 uM
Method in brief: (§1)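 Compounds tested at 1 μM on α and β isoforms and at 0.3 or 0.1 μM on γ and δ, with percent inhibition from blank and enzyme controls, plus IC50 fits. Room-temperature reaction: 10 min enzyme–compound preincubation in MgCl2/DTT buffer with 1.38 μM PIP2, then 30 min after 400 μM ATP addition; PIP3 read by HTRF (665/620 nm).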

[2] = target: PI3kγ (Homo sapiens, UniProt P48736); test: Fluorescent (HTRF) determination of PI3 kinase enzyme activity, PI3Kγ; assay type: biochemical; conditions: for inhibition at 0.1 µM / % inhibition (PI3kγ) 100 nM: 100 nM (Examples 60-137); for inhibition at 0.3 µM: 300 nM (Examples 1-59)
Sequence of PI3kγ (P48736 whole entry): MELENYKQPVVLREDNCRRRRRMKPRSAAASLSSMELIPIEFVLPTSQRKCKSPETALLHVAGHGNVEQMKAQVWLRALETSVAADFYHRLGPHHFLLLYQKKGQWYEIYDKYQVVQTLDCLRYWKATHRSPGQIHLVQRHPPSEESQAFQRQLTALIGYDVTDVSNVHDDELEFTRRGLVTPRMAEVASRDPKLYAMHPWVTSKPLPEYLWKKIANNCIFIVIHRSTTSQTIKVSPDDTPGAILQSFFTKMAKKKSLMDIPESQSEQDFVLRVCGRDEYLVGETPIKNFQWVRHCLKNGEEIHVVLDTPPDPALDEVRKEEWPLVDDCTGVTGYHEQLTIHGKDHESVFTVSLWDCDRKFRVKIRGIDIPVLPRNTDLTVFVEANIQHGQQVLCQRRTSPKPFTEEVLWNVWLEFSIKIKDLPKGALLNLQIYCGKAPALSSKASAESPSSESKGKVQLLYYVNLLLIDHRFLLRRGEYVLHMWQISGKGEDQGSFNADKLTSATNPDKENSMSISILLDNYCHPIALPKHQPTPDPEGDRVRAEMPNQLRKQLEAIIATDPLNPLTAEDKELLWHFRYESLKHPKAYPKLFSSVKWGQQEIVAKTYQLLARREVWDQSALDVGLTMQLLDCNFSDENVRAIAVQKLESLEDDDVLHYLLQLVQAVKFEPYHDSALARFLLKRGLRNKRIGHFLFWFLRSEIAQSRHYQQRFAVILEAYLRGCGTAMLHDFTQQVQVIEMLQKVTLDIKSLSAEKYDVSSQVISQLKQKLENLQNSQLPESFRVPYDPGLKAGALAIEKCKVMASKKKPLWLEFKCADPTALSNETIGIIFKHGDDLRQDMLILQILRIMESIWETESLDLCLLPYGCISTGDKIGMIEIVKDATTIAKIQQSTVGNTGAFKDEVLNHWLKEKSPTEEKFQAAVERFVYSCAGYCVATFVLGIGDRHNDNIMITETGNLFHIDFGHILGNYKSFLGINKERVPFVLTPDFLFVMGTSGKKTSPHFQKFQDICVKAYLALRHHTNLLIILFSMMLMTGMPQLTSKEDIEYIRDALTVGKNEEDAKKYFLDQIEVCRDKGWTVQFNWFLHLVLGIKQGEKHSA
Method in brief: as §1

[3] = target: PI3kδ (Homo sapiens, UniProt O00329); test: Fluorescent (HTRF) determination of PI3 kinase enzyme activity, PI3Kδ; assay type: biochemical; conditions: for inhibition at 0.1 µM / % inhibition (PI3kδ) 100 nM: 100 nM (Examples 60-137); for % inhibition (PI3kδ) 100 nM: 0.1 µM; for inhibition at 0.3 µM: 300 nM (Examples 1-59)
Sequence of PI3kδ (O00329 whole entry): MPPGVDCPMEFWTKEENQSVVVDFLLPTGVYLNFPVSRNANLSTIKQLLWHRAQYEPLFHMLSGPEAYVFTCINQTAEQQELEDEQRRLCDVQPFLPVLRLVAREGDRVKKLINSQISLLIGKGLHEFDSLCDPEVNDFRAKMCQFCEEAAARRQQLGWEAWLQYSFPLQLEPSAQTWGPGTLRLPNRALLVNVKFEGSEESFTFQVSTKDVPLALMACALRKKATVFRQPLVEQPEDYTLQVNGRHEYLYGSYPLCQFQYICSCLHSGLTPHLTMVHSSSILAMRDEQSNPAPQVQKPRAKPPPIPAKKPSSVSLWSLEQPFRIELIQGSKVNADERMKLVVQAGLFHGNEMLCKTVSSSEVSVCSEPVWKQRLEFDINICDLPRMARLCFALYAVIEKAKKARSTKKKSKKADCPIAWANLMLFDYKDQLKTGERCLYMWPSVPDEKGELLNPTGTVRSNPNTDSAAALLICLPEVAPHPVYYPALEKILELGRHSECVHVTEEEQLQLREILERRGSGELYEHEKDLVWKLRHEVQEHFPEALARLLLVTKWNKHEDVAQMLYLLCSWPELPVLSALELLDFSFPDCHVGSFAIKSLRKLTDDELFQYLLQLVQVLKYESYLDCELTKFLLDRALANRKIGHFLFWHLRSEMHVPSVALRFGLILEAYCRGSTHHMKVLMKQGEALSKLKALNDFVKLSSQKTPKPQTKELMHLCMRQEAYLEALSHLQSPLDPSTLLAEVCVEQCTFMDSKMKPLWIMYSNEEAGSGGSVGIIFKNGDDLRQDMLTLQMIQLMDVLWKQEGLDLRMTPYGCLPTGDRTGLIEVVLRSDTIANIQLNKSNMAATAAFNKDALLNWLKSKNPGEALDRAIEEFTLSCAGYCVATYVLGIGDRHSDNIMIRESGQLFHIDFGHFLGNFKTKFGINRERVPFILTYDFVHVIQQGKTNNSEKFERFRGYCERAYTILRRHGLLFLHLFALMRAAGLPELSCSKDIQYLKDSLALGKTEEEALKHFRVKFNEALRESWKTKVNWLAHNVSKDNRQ
Sequence of PI3kδ (P27986 whole entry partner): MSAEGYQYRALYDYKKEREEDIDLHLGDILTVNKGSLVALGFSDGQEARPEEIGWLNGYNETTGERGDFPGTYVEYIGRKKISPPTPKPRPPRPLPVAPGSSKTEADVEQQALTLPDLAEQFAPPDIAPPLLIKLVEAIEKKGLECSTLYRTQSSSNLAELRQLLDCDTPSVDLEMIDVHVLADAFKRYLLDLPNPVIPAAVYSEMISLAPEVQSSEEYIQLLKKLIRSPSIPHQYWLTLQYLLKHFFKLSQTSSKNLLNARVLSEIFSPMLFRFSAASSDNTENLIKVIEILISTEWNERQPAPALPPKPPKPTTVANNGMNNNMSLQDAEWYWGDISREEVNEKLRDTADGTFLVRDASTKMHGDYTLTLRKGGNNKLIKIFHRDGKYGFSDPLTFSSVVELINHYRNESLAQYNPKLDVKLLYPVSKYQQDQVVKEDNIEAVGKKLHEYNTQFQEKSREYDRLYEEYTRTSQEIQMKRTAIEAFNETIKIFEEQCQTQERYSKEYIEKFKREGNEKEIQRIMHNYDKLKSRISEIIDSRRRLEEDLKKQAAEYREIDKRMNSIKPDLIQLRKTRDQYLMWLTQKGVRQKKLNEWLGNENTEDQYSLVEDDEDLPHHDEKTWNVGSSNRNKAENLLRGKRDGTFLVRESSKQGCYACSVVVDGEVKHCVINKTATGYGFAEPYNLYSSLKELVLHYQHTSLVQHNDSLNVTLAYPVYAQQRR
Method in brief: as §1

Sequence of PI3kβ (P42338 whole entry, canonical isoform): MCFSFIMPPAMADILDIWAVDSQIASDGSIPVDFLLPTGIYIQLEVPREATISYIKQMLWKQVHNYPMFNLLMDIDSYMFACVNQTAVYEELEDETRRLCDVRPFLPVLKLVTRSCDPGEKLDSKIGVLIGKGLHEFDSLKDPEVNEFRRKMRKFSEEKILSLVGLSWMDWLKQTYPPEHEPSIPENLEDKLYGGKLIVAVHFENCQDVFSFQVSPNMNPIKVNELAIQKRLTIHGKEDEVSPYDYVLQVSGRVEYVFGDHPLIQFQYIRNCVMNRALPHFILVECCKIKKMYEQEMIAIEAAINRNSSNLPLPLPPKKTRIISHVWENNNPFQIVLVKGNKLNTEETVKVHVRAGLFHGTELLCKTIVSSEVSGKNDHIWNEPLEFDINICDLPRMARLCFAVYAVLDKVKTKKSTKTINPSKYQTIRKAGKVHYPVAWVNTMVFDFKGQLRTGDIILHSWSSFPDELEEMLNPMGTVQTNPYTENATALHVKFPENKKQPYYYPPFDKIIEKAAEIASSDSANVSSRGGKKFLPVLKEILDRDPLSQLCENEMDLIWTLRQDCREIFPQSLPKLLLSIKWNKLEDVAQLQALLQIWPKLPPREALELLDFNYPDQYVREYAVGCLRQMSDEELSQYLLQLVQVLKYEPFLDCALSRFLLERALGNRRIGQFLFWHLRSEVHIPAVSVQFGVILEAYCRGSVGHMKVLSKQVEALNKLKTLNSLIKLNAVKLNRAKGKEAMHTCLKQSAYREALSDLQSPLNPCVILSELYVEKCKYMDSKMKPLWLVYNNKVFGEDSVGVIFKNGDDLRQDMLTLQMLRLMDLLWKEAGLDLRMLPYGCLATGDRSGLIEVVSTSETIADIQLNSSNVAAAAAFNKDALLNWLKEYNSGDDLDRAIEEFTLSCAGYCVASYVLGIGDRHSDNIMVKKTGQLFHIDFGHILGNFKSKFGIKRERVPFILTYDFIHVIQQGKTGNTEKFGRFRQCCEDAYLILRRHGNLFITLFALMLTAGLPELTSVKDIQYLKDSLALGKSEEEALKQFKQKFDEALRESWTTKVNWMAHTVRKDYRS
Sequence of PI3kβ (P27986 whole entry partner, canonical isoform): as the sequence (P27986 whole entry partner) above

Row | SMILES | melting point | inhibition at 0.1 µM [2] | inhibition at 0.1 µM [3] | further results
1 | COC(=O)c1ccc(-c2nn(C(C)c3oc4cccc(F)c4c(=O)c3-c3cccc(F)c3)c3ncnc(N)c23)c(F)c1 (stereo not drawn) [Example 64, methyl 4-(4-amino-1-(1-(5-fluoro-3-(3-fluorophenyl)-4-oxo-4H-chromen-2-yl)ethyl)-1H-pyrazolo[3,4-d]pyrimidin-3-yl)-3-fluorobenzoate] | 258 to 260 °C | 25 to 50% | 50 to 75% | inhibition at 1 µM [1]: 25 to 50%
2 | CNc1ncnc2c1c(-c1ccc(OC(C)C)c(F)c1)nn2C(C)c1oc2cccc(F)c2c(=O)c1-c1cccc(F)c1 (stereo not drawn) [Example 84, 5-fluoro-2-(1-(3-(3-fluoro-4-isopropoxyphenyl)-4-(methylamino)-1H-pyrazolo[3,4-d]pyrimidin-1-yl)ethyl)-3-(3-fluorophenyl)-4H-chromen-4-one] | 193 to 196 °C | – | – | IC50 [2]: > 500 nM; % inhibition (PI3kγ) 100 nM [2]: C (C=>25 to 50%); IC50 [3]: ≤ 50 nM; % inhibition (PI3kδ) 100 nM [3]: B (B=>50 to 75%)
3 | CC(C)Oc1ccc(-c2nn(C(C)c3oc4cccc(F)c4c(=O)c3-c3cccc(F)c3)c3ncnc(N(C)C)c23)cc1F (stereo not drawn) [Example 83, 2-(1-(4-(dimethylamino)-3-(3-fluoro-4-isopropoxyphenyl)-1H-pyrazolo[3,4-d]pyrimidin-1-yl)ethyl)-5-fluoro-3-(3-fluorophenyl)-4H-chromen-4-one] | 122 to 124 °C | 75 to 100% | 75 to 100% | IC50 [2]: ≤ 50 nM; IC50 [3]: ≤ 50 nM
4 | CC(c1oc2cccc(F)c2c(=O)c1-c1cccc(F)c1)n1nc(-c2ccc(S(=O)(=O)NC3CC3)cc2)c2c(N)ncnc21 (stereo not drawn) [Example 57, 4-(4-amino-1-(1-(5-fluoro-3-(3-fluorophenyl)-4-oxo-4H-chromen-2-yl)ethyl)-1H-pyrazolo[3,4-d]pyrimidin-3-yl)-N-cyclopropylbenzenesulfonamide] | 225 to 228 °C | – | – | inhibition at 0.3 µM [2]: 50 to 75%; inhibition at 0.3 µM [3]: 0 to 25%
5 | CC(c1oc2cccc(F)c2c(=O)c1-c1cccc(F)c1)n1nc(-c2ccc(C3=NCCCO3)cc2)c2c(N)ncnc21 (stereo not drawn) [Example 51, 2-(1-(4-amino-3-(4-(5,6-dihydro-4H-1,3-oxazin-2-yl)phenyl)-1H-pyrazolo[3,4-d]pyrimidin-1-yl)ethyl)-5-fluoro-3-(3-fluorophenyl)-4H-chromen-4-one] | 228 to 230 °C | – | – | inhibition at 0.3 µM [2]: 50 to 75%; inhibition at 0.3 µM [3]: 25 to 50%
6 | CCOc1ccc(-c2nn(C(C)c3oc4cccc(F)c4c(=O)c3-c3cccc(F)c3)c3ncnc(N)c23)cc1C(F)(F)F (stereo not drawn) [Example 132, 2-(1-(4-amino-3-(4-ethoxy-3-(trifluoromethyl)phenyl)-1H-pyrazolo[3,4-d]pyrimidin-1-yl)ethyl)-5-fluoro-3-(3-fluorophenyl)-4H-chromen-4-one] | 225 to 227 °C | 25 to 50% | 50 to 75% | –
7 | CC(c1oc2cccc(F)c2c(=O)c1-c1cccc(F)c1)n1nc(-c2ccc3nccn3c2)c2c(N)ncnc21 (stereo not drawn) [Example 73, 2-(1-(4-amino-3-(imidazo[1,2-a]pyridin-6-yl)-1H-pyrazolo[3,4-d]pyrimidin-1-yl)ethyl)-5-fluoro-3-(3-fluorophenyl)-4H-chromen-4-one] | 317 to 320 °C | 25 to 50% | 25 to 50% | –
8 | CC(c1oc2cccc(F)c2c(=O)c1-c1cccc(F)c1)n1cnc2c(N(C)C)ncnc21 (single isomer, unassigned) [Example 130] | 198 to 200 °C | 25 to 50% | 25 to 50% | inhibition at 1 µM [1]: 25 to 50%
9 | CC(c1oc2cccc(F)c2c(=O)c1-c1cn[nH]c1)n1nc(-c2ccc(OC(F)F)c(F)c2)c2c(N)ncnc21 (stereo not drawn) [Example 91, 2-(1-(4-amino-3-(4-(difluoromethoxy)-3-fluorophenyl)-1H-pyrazolo[3,4-d]pyrimidin-1-yl)ethyl)-5-fluoro-3-(1H-pyrazol-4-yl)-4H-chromen-4-one] | 135 to 138 °C | 25 to 50% | 25 to 50% | –
10 | C[C@H](Nc1nc(F)nc2[nH]cnc12)c1oc2cccc(F)c2c(=O)c1-c1cccc(F)c1 (racemic) [Example 136, (S)/(R)-5-fluoro-2-(1-(2-fluoro-9H-purin-6-ylamino)ethyl)-3-(3-fluorophenyl)-4H-chromen-4-one] | 183 to 186 °C | 25 to 50% | 25 to 50% | –
11 | CC(c1oc2cccc(F)c2c(=O)c1-c1cccc(F)c1)n1nc(-c2ccc(CNS(C)(=O)=O)cc2)c2c(N)ncnc21 (stereo not drawn) [Example 55, N-(4-(4-amino-1-(1-(5-fluoro-3-(3-fluorophenyl)-4-oxo-4H-chromen-2-yl)ethyl)-1H-pyrazolo[3,4-d]pyrimidin-3-yl)benzyl)methanesulfonamide] | 252 to 255 °C | – | – | inhibition at 0.3 µM [2]: 50 to 75%; inhibition at 0.3 µM [3]: 25 to 50%
12 | CC(c1oc2cccc(F)c2c(=O)c1-c1cccc(F)c1)n1nc(-c2ccc(OC(F)(F)F)c(F)c2)c2c(N)ncnc21 (stereo not drawn) [Example 45, 2-(1-(4-amino-3-(3-fluoro-4-(trifluoromethoxy)phenyl)-1H-pyrazolo[3,4-d]pyrimidin-1-yl)ethyl)-5-fluoro-3-(3-fluorophenyl)-4H-chromen-4-one] | 247 to 249 °C | – | – | inhibition at 0.3 µM [2]: 25 to 50%; inhibition at 0.3 µM [3]: 50 to 75%
13 | CC(C)Oc1ccc(-c2nn(C(C)c3oc4cccc(N5CCOCC5)c4c(=O)c3-c3cccc(F)c3)c3ncnc(N)c23)cc1F (stereo not drawn) [Example 120, 2-(1-(4-amino-3-(3-fluoro-4-isopropoxyphenyl)-1H-pyrazolo[3,4-d]pyrimidin-1-yl)ethyl)-3-(3-fluorophenyl)-5-morpholino-4H-chromen-4-one] | 227 to 229 °C | 0 to 25% | 0 to 25% | –
14 | CC(c1oc2cccc(F)c2c(=O)c1-c1cccc(F)c1)n1nc(N2CCCC2)c2c(N)ncnc21 (stereo not drawn) [Example 47, 2-(1-(4-amino-3-(pyrrolidin-1-yl)-1H-pyrazolo[3,4-d]pyrimidin-1-yl)ethyl)-5-fluoro-3-(3-fluorophenyl)-4H-chromen-4-one] | 203 to 205 °C | – | – | inhibition at 0.3 µM [2]: 0 to 25%; inhibition at 0.3 µM [3]: 0 to 25%
15 | COc1nc(N[C@@H](C)c2oc3cccc(F)c3c(=O)c2-c2cccc(F)c2)c2nc[nH]c2n1 (single isomer, unassigned) [Example 134] | 186 to 189 °C | 0 to 25% | 25 to 50% | –
16 | COc1c(C)cc(-c2nn(C(C)c3oc4cccc(F)c4c(=O)c3-c3cccc(F)c3)c3ncnc(N)c23)cc1C (stereo not drawn) [Example 71, 2-(1-(4-amino-3-(4-methoxy-3,5-dimethylphenyl)-1H-pyrazolo[3,4-d]pyrimidin-1-yl)ethyl)-5-fluoro-3-(3-fluorophenyl)-4H-chromen-4-one] | 232 to 235 °C | 25 to 50% | 0 to 25% | –
17 | CC(C)Oc1ccc(-c2nn(C(C)c3oc4cccc(F)c4c(=O)c3-c3cccc(F)c3)c3ncnc(N4CCOCC4)c23)cc1F (racemic) [Example 116, (S)/(R)-5-fluoro-2-(1-(3-(3-fluoro-4-isopropoxyphenyl)-4-morpholino-1H-pyrazolo[3,4-d]pyrimidin-1-yl)ethyl)-3-(3-fluorophenyl)-4H-chromen-4-one] | 136 to 138 °C | – | – | % inhibition (PI3kγ) 100 nM ([2]; 0.1 µM): D (D=0 to 25%); % inhibition (PI3kδ) 100 nM [3]: D (D=0 to 25%)

Source: patent US11020399B2, “Intermediates useful in the synthesis of compounds as modulators of protein kinases” (Rhizen Pharmaceuticals SA, priority 2011, dated 2021)
